This is an account of results in patent US20260345798A1, “COMPOUNDS AND METHODS OF USE THEREOF” (Virginia Commonwealth University, priority 2023, published 2026).

For assay [1], the target named is T1, MDA-9/Syntenin (Homo sapiens, UniProt O00560).
T1 sequence (O00560 1-298): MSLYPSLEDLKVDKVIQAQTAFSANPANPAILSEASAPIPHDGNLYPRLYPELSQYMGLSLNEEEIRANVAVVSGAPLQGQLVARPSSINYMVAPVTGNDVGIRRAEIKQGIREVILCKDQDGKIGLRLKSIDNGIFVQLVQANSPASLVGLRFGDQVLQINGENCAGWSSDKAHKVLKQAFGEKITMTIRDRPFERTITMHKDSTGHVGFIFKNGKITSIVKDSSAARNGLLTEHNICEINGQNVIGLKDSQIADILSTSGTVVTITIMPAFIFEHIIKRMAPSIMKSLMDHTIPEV
The assay can be described thus: Microscale thermophoresis (MST) binding affinity. The conditions noted are these: His-tagged recombinant MDA-9/Syntenin 175 nM, PBS-T pH 7.4, 25 °C, ± S.E., read-out: dissociation constant (KD). On the procedure: FIG. 1C is a binding curve of IVMT-Rx-3 bound to MDA-9/Syntenin. The binding constant Ka was measured from the binding curve generated through a microscale thermophoresis (MST) assay.
Binding affinity was measured using microscale thermophoresis (MST) experiments performed on a Monolith NT. Automated instrument (NanoTemper Technologies GmbH, Munich, Germany). His-tagged MDA-9/Syntenin was first labeled with RED-tris-NTA (λEX-650 nm, λEM=670 nm; Cat #MO-LO18) according to the manufacturer's protocol. Briefly, 700 nM MDA-9 in 100 mM phosphate-buffered saline, pH 7.4, containing 0.05% Tween 20 (PBS-T) was added to an equal volume of 100 nM RED-tris-NTA in PBS-T and the mixture was incubated at room temperature for 30 min, centrifuged at 15,000 g for 10 min at 4 °C, and the supernatant containing the labeled protein was transferred to a new tube for use in affinity measurements. […] After a 10-min incubation, the samples were loaded into premium capillary chips and thermophoretic measurements were performed (25 °C, 27% excitation power, medium MST power, 20 s laser on) to follow changes in normalized fluorescence (Fnorm) at different IVMT-Rx-3 concentrations (FIG. 1C). These changes were analyzed using the standard hyperbolic binding isotherm (SigmaPlot) to obtain the affinity of IVMT-Rx-3 for MDA-9/Syntenin. […]
On the technique in general: Microscale thermophoresis detects binding through changes in fluorescence in a small temperature gradient.

The next assay deals with B16 melanoma cells. Briefly: Boyden chamber invasion assay, B16 cells. The format is cell-based. The conditions noted are these: B16 mouse melanoma cells. On the procedure: FIG. 13A is a series of photomicrographs of B16 melanoma cells treated with IVMT-Rx-3 at varying concentrations, as well as a histogram showing quantification of the average percentage (of control) of invaded cells. Invasion was assayed using a Boyden chamber. *: Statistical significance (p<0.05).
Invasive phenotype was measured using a Boyden Chamber Assay as described previously (6,8,18). Briefly, 25,000 cells were plated on the upper chamber of the trans well in FBS free media and allowed to invade the Matrigel layer towards the bottom chamber supplemented with complete media. Twenty-four hr. after plating, the invaded cells were fixed and counted under a bright field microscope.

Another assay relates to IGFBP-2. The assay can be described thus: IGFBP-2 ELISA in conditioned media. The format is cell-based, human. The conditions noted are these: 10, 25 or 50 μM, 24 hr. On the procedure: FIG. 5C is a series of histograms showing the amount of IGFBP-2 secreted from A-375, C8161.9, TPF-19-219, TPF-19-235, and TPF-16-238 cells treated with varying concentrations of IVMT-Rx-3, as measured by ELISA.
IGFBP-2 levels in conditioned media were determined using an IGFBP-2 ELISA kit (R&D systems, USA) according to the manufacturer's instructions (9). Each sample was repeated three times, and represented graphically with GraphPad Prism software.
Insulin Growth Factor Binding Protein-2 (IGFBP-2) has been found in higher levels in the serum of individuals with diverse types of pathological conditions and is very germane in the context of angiogenesis, tumor promotion and chemoresistance (33). Since Src activation is critical for IGFBP-2 induced angiogenesis, a potential suppressive function of IVMT-Rx-3 on IGFBP-2 expression levels was investigated (9). Melanoma cells were treated with different doses (10, 25 or 50 μM) of IVMT-Rx-3 for 24 hr. and levels of IGFBP-2 in the media were determined using ELISA (FIG. 5C). […] Blocking MDA-9/Syntenin expression inhibits the secretion of cytokines/growth factors in breast cancer resulting in the conversion of an immunosuppressive to immunostimulatory microenvironment (23). Accordingly, the level of specific melanoma metastasis-associated cytokines, e.g., IL-6, IL-10, IL-16, following treatment with IVMT-Rx-3 was analyzed. […]
In general terms: An ELISA detects its analyte on a solid surface through an enzyme-linked reagent.

In assay [2] the target is T1, MDA-9/Syntenin. The assay can be described thus: NMR titration / ITC binding and HSQC mapping.

Residues, ends and D or L forms follow the SMILES beside them.

What is called Kd is a measure of binding affinity in units of concentration. Regarding `Cc1cc(NC(=O)c2nc3[nH]c4c(c(=O)n3n2)CCC4)c(C)cc1NC(=O)CCOCCC(=O)N[C@H](C(=O)N[C@@H](CC(N)=O)C(=O)N[C@@H](CCC(=O)O)C(=O)N[C@@H](Cc1ccc(O)cc1)C(=O)N[C@@H](Cc1ccc(O)cc1)C(=O)N[C@H](C(=O)O)C(C)C)[C@@H](C)O` [IVMT-Rx-3] (HELM PEPTIDE1{[Cc1cc(NC(=O)c2nc3[nH]c4c(c(=O)n3n2)CCC4)c(C)cc1NC(=O)CCOCCC(=O)[*:2]].T.N.E.Y.Y.V}$$$$V2.0), the Kd at MDA-9/Syntenin [1] was 63 µM; on MDA-9/Syntenin [2] (ITC, fitted to a single binding event, NMR titration provides similar values, read-out: overall dissociation constant of the complex, Kd) it was under 1 µM. The “invasion of B16 cells” value with B16 melanoma cells is reported as “inhibition of invasion”. In addition, the “IGFBP-2 in tumor-derived media” value with IGFBP-2 is given as “dose-dependent downregulation”. Moreover, the “induction of chemical shifts (NMR mapping)” value on MDA-9/Syntenin [2] (NMR mapping studies) is listed as “induces chemical shifts in both domains”. In addition, the “perturbation of Met201 (PDZ2) and Met188 (PDZ1)” value on MDA-9/Syntenin [2] ([13C,1H]-HSQC, 20 μM 13C-Met-labeled MDA-9/Syntenin, 40 μM compound) is “both clearly perturbed”.
